Here are results for 31 molecules from ChEMBL document CHEMBL4819019, “Design, synthesis, antibacterial activity and toxicity of novel quaternary ammonium compounds based on pyridoxine and fatty acids” (Eur J Med Chem, 2021).

One data set concerns Staphylococcus aureus. Briefly: Antibacterial activity against Staphylococcus aureus ATCC 29213 measured after 24 hrs by broth microdilution method. Format: functional.
In the next data set the test system is Bacillus subtilis. Briefly: Antibacterial activity against Bacillus subtilis 168 measured after 24 hrs by broth microdilution method. It is filed as functional.
For a further data set, the system named is Micrococcus luteus. Description: Antibacterial activity against Micrococcus luteus clinical isolate measured after 24 hrs by broth microdilution method. It is filed as functional.
The next data set has as its system Escherichia coli. Briefly: Antibacterial activity against Escherichia coli MG 1655 measured after 24 hrs by broth microdilution method. It is filed as functional.
Another data set concerns Pseudomonas aeruginosa. Description: Antibacterial activity against Pseudomonas aeruginosa ATCC 27853 measured after 24 hrs by broth microdilution method. It is filed as functional.
A short description of data set [1]: Lipophilicity, logP of the compound. It is filed as physicochemical. Particulars: octanol/water.

Structures are written as SMILES.

Regarding `CCCCCC(=O)NCCC[N+](C)(C)Cc1cnc(C)c2c1COC(C)(C)O2.[Cl-]`, the MIC with Staphylococcus aureus, in the data set with Bacillus subtilis, with Micrococcus luteus, with Escherichia coli and against Pseudomonas aeruginosa was over 64 µg/mL throughout. In data set [1], this molecule registered a log partition coefficient (logP) of -2.09.
Turning to `CCCCCCCCCCCCCC(=O)NCCC[N+](C)(C)Cc1nc(C)c2c(c1CO)COC(C)(C)O2.[Cl-]`, the minimal inhibitory concentration (MIC) against Staphylococcus aureus is 2 µg/mL; against Bacillus subtilis, 2 µg/mL; in the data set with Micrococcus luteus it was 1 µg/mL; in the data set on Escherichia coli it was 16 µg/mL; with Pseudomonas aeruginosa it was over 64 µg/mL. The molecule further registered a logP in data set [1] of 0.79.
For `CCCCCCCCCCCCCC(=O)OCC[N+](C)(C)Cc1nc(C)c2c(c1CO)COC(CCC)O2.[Cl-]` (stereo unspecified), the MIC against Staphylococcus aureus was 2 µg/mL; against Bacillus subtilis, 2 µg/mL; with Micrococcus luteus it was 2 µg/mL; with Escherichia coli, 64 µg/mL; against Pseudomonas aeruginosa, over 64 µg/mL. In data set [1], this molecule gave a lipophilicity (logP) of 2.29.
For the molecule `CCCCCCCCCCCCCC(=O)OCCC[N+](C)(C)Cc1nc(C)c2c(c1CO)COC(C)(C)O2.[Cl-]`, the MIC in the data set with Staphylococcus aureus is 1 µg/mL; against Bacillus subtilis, 0.5 µg/mL; in the data set with Micrococcus luteus, 2 µg/mL; against Escherichia coli, 64 µg/mL; against Pseudomonas aeruginosa it was over 64 µg/mL. This molecule returned a lipophilicity (logP) in data set [1] of 1.52.
With `CCCCCCCCCCCCCCCC(=O)OCC[N+](C)(C)Cc1cnc(C)c2c1COC(CCC)O2.[Cl-]` (stereo unspecified), the MIC is 2 µg/mL in the data set on Staphylococcus aureus; 4 µg/mL against Bacillus subtilis; 1 µg/mL against Micrococcus luteus; over 64 µg/mL with Escherichia coli; 8 µg/mL against Pseudomonas aeruginosa. This molecule also displayed a log partition coefficient (logP) in data set [1] of 3.86.
As for `CCCCCCCCCCCC(=O)NCC[N+](C)(C)Cc1cnc(C)c2c1COC(C)(C)O2.[Cl-]`, the MIC with Staphylococcus aureus stood at 1 µg/mL; against Bacillus subtilis, 8 µg/mL; against Micrococcus luteus, 4 µg/mL; in the data set on Escherichia coli, 32 µg/mL; against Pseudomonas aeruginosa, 32 µg/mL. Further, in data set [1], the logP came to 0.52.
For `CCCCCCCCCCCCCCCCCC(=O)NCCC[N+](C)(C)Cc1cnc(C)c2c1COC(C)(CCC)O2.[Cl-]` (stereo unspecified), the MIC in the data set on Staphylococcus aureus, with Bacillus subtilis, in the data set with Micrococcus luteus, with Escherichia coli and against Pseudomonas aeruginosa was over 64 µg/mL each time. In data set [1], this molecule gave a logP of 4.08.
In the case of `CCCCCCCCCCCCCCCC(=O)NCC[N+](C)(C)Cc1cnc(C)c2c1COC(C)(C)O2.[Cl-]`, the MIC with Staphylococcus aureus amounted to 1 µg/mL; against Bacillus subtilis, 4 µg/mL; against Micrococcus luteus, 1 µg/mL; in the data set on Escherichia coli, 32 µg/mL; in the data set with Pseudomonas aeruginosa, 2 µg/mL. Moreover, the logP in data set [1] came to 2.93.
On to `CCCCCCCCCCCCCCCC(=O)OCCC[N+](C)(C)Cc1cnc(C)c2c1COC(CCC)O2.[Cl-]` (stereo unspecified), for which the MIC in the data set with Staphylococcus aureus was 32 µg/mL; in the data set with Bacillus subtilis, 32 µg/mL; against Micrococcus luteus, 8 µg/mL; against Escherichia coli it was over 64 µg/mL; in the data set on Pseudomonas aeruginosa it was 32 µg/mL. This molecule yielded a logP in data set [1] of 3.92.
Consider `CCCCCCCCCCCCCC(=O)NCCC[N+](C)(C)Cc1cnc(C)c2c1COC(CCCCCCCC)O2.[Cl-]` (stereo unspecified), for which the MIC in the data set with Staphylococcus aureus, in the data set on Bacillus subtilis, against Micrococcus luteus, in the data set on Escherichia coli and against Pseudomonas aeruginosa was over 64 µg/mL in each case. The logP in data set [1] was found to be 4.53.
For `CCCCCCCCCCCCCCCC(=O)NCCC[N+](C)(C)Cc1cnc(C)c2c1COC(C)(CCC)O2.[Cl-]` (stereo unspecified), the minimal inhibitory concentration (MIC) is 2 µg/mL with Staphylococcus aureus; 4 µg/mL in the data set with Bacillus subtilis; 2 µg/mL in the data set with Micrococcus luteus; 2 µg/mL against Escherichia coli; over 64 µg/mL against Pseudomonas aeruginosa. In data set [1], this molecule registered a logP of 3.19.
In the case of `CCCCCCCCCC(C)C1OCc2c(C[N+](C)(C)CCCNC(=O)CCCCC)cnc(C)c2O1.[Cl-]` (stereo unspecified), the MIC in the data set with Staphylococcus aureus, with Bacillus subtilis, with Micrococcus luteus, against Escherichia coli and in the data set on Pseudomonas aeruginosa was over 64 µg/mL in each case. This molecule also gave a logP in data set [1] of 2.34.
As to `CCCCCCCCCCCCCCCCCC[N+](C)(C)Cc1cnc(C)c2c1COC(C)(C)O2.[Cl-]`, the MIC against Staphylococcus aureus is 4 µg/mL; in the data set with Bacillus subtilis it was over 64 µg/mL; against Micrococcus luteus, 16 µg/mL; against Escherichia coli it was over 64 µg/mL; against Pseudomonas aeruginosa, over 64 µg/mL. In addition, the logP in data set [1] is 4.35.
Take `CCCCCCCCCCCCCC(=O)NCCC[N+](C)(C)Cc1nc(C)c2c(c1CO)COC(CCC)O2.[Cl-]` (stereo unspecified): the MIC against Staphylococcus aureus was 2 µg/mL; with Bacillus subtilis it was 1 µg/mL; with Micrococcus luteus, 1 µg/mL; against Escherichia coli it was 64 µg/mL; with Pseudomonas aeruginosa, over 64 µg/mL. This molecule gave a logP in data set [1] of 1.62.
For the molecule `CCCCCCCCCCCC(=O)NCCC[N+](C)(C)Cc1cnc(C)c2c1COC(C)(CCC)O2.[Cl-]` (stereo unspecified), the minimal inhibitory concentration (MIC) amounted to 1 µg/mL in the data set on Staphylococcus aureus; 4 µg/mL in the data set with Bacillus subtilis; 4 µg/mL with Micrococcus luteus; 8 µg/mL against Escherichia coli; 32 µg/mL against Pseudomonas aeruginosa. This molecule gave a logP in data set [1] of 1.41.
On to `CCCCCCCCCCCCCC(=O)OCCC[N+](C)(C)Cc1nc(C)c2c(c1CO)COC(CCC)O2.[Cl-]` (stereo unspecified), for which the MIC with Staphylococcus aureus is 2 µg/mL; in the data set with Bacillus subtilis, 2 µg/mL; with Micrococcus luteus it was 2 µg/mL; against Escherichia coli it was 64 µg/mL; against Pseudomonas aeruginosa, over 64 µg/mL. The logP in data set [1] worked out at 2.35.
Turning to `CCCCCCCCCCCCCC(=O)OCCC[N+](C)(C)Cc1cnc(C)c2c1COC(C)(C)O2.[Cl-]`, the MIC against Staphylococcus aureus was determined as 2 µg/mL; with Bacillus subtilis, 2 µg/mL; in the data set on Micrococcus luteus, 2 µg/mL; in the data set on Escherichia coli it was 16 µg/mL; against Pseudomonas aeruginosa, 16 µg/mL. Also, the logP in data set [1] was 2.2.
`CCCCCCCC[N+](C)(C)Cc1nc(C)c2c(c1CO)COC(C)(C)O2.[Cl-]`: the minimum inhibitory concentration (MIC) with Staphylococcus aureus is 64 µg/mL; with Bacillus subtilis, 64 µg/mL; in the data set with Micrococcus luteus, 64 µg/mL; against Escherichia coli it was 64 µg/mL; with Pseudomonas aeruginosa, over 64 µg/mL. This molecule came in with a logP in data set [1] of -0.78.
As for `CCCCCCCCCCCCCCCC(=O)NCC[N+](C)(C)Cc1cnc(C)c2c1COC(C)(CCC)O2.[Cl-]` (stereo unspecified), the MIC with Staphylococcus aureus is 8 µg/mL; with Bacillus subtilis, 16 µg/mL; in the data set with Micrococcus luteus, 16 µg/mL; against Escherichia coli, over 64 µg/mL; against Pseudomonas aeruginosa, over 64 µg/mL. The same molecule displayed a logP in data set [1] of 3.13.
For the molecule `CCCCCCCCCCCC(=O)OCCC[N+](C)(C)Cc1cnc(C)c2c1COC(C)(C)O2.[Cl-]`, the MIC against Staphylococcus aureus was 2 µg/mL; in the data set with Bacillus subtilis, 1 µg/mL; against Micrococcus luteus, 2 µg/mL; with Escherichia coli it was 8 µg/mL; with Pseudomonas aeruginosa, 32 µg/mL. In data set [1], this molecule showed a logP of 1.31.
As for `CCCCCCCCCCCCCC(=O)NCC[N+](C)(C)Cc1nc(C)c2c(c1CO)COC(CCC)O2.[Cl-]` (stereo unspecified), the MIC in the data set with Staphylococcus aureus is 2 µg/mL; in the data set with Bacillus subtilis it was 2 µg/mL; against Micrococcus luteus, 4 µg/mL; with Escherichia coli it was 64 µg/mL; against Pseudomonas aeruginosa, over 64 µg/mL. In addition, the logP in data set [1] was determined as 1.56.
`CCCCCCCCCCCCCC(=O)NCCC[N+](C)(C)Cc1cnc(C)c2c1COC(C)(CCC)O2.[Cl-]` (stereo unspecified): the MIC in the data set with Staphylococcus aureus was 2 µg/mL; in the data set with Bacillus subtilis, 2 µg/mL; with Micrococcus luteus, 2 µg/mL; against Escherichia coli, 2 µg/mL; against Pseudomonas aeruginosa, over 64 µg/mL. The molecule also showed a logP in data set [1] of 2.3.
For the molecule `CCCCCCCCCCCC(=O)OCC[N+](C)(C)Cc1cnc(C)c2c1COC(C)(C)O2.[Cl-]`, the MIC against Staphylococcus aureus came to 4 µg/mL; with Bacillus subtilis it was 4 µg/mL; in the data set on Micrococcus luteus it was 4 µg/mL; against Escherichia coli it was 16 µg/mL; against Pseudomonas aeruginosa, 64 µg/mL. For the same molecule, the log partition coefficient (logP) in data set [1] was 1.25.
For the molecule `CCCCCCCCCCCCCCCCCC(=O)NCC[N+](C)(C)Cc1cnc(C)c2c1COC(C)(C)O2.[Cl-]`, the MIC in the data set on Staphylococcus aureus is 4 µg/mL; in the data set with Bacillus subtilis, 8 µg/mL; in the data set on Micrococcus luteus it was 2 µg/mL; against Escherichia coli it was over 64 µg/mL; in the data set on Pseudomonas aeruginosa, 8 µg/mL. In addition, the lipophilicity (logP) in data set [1] worked out at 3.19.
Take `CCCCCCCCCCCCCCCC(=O)NCCC[N+](C)(C)Cc1cnc(C)c2c1COC(C)(C)O2.[Cl-]`: the MIC was 4 µg/mL against Staphylococcus aureus; 2 µg/mL in the data set with Bacillus subtilis; 2 µg/mL against Micrococcus luteus; over 64 µg/mL against Escherichia coli; 8 µg/mL with Pseudomonas aeruginosa. In data set [1], this molecule showed a logP of 2.36.
For `CCCCCCCCCCCC(=O)OCC[N+](C)(C)Cc1cnc(C)c2c1COC(CCC)O2.[Cl-]` (stereo unspecified), the MIC against Staphylococcus aureus was 1 µg/mL; with Bacillus subtilis, 2 µg/mL; against Micrococcus luteus, 2 µg/mL; in the data set with Escherichia coli, 4 µg/mL; against Pseudomonas aeruginosa, 32 µg/mL. The molecule also came in with a logP in data set [1] of 2.08.
Take `CCCCCCCCCCCCCC(=O)OCCC[N+](C)(C)Cc1cnc(C)c2c1COC(CCCCC)O2.[Cl-]` (stereo unspecified): the MIC against Staphylococcus aureus is 8 µg/mL; in the data set with Bacillus subtilis it was 4 µg/mL; with Micrococcus luteus, 8 µg/mL; against Escherichia coli, over 64 µg/mL; against Pseudomonas aeruginosa, over 64 µg/mL. The lipophilicity (logP) in data set [1] is 3.92.
For the molecule `CCCCCCCCCCCCCC(=O)OCCC[N+](C)(C)Cc1cnc(C)c2c1COC(CCC)O2.[Cl-]` (stereo unspecified), the MIC is 2 µg/mL against Staphylococcus aureus; 2 µg/mL against Bacillus subtilis; 1 µg/mL in the data set with Micrococcus luteus; over 64 µg/mL in the data set on Escherichia coli; 4 µg/mL against Pseudomonas aeruginosa. Also, in data set [1], the log partition coefficient (logP) was determined as 3.03.
`CCCCCCCCCCCCCCCC(=O)OCC[N+](C)(C)Cc1cnc(C)c2c1COC(C)(C)O2.[Cl-]`: the MIC with Staphylococcus aureus is 0.5 µg/mL; in the data set on Bacillus subtilis, 1 µg/mL; against Micrococcus luteus, 0.5 µg/mL; in the data set with Escherichia coli, over 64 µg/mL; in the data set on Pseudomonas aeruginosa it was 4 µg/mL. The molecule further displayed a logP in data set [1] of 3.03.
In the case of `CCCCCCCCCCCCCCCCCC(=O)NCC[N+](C)(C)Cc1cnc(C)c2c1COC(C)(CCC)O2.[Cl-]` (stereo unspecified), the MIC with Staphylococcus aureus, with Bacillus subtilis, against Micrococcus luteus, against Escherichia coli and in the data set with Pseudomonas aeruginosa was over 64 µg/mL throughout. Besides, the log partition coefficient (logP) in data set [1] was determined as 4.02.
Take `CCCCCCCCCCCC(=O)NCCC[N+](C)(C)Cc1cnc(C)c2c1COC(C)(C)O2.[Cl-]`: the minimum inhibitory concentration (MIC) in the data set on Staphylococcus aureus turned out to be 8 µg/mL; in the data set with Bacillus subtilis it was 8 µg/mL; with Micrococcus luteus it was 16 µg/mL; with Escherichia coli, 64 µg/mL; in the data set on Pseudomonas aeruginosa, 64 µg/mL. The molecule further gave a logP in data set [1] of 0.58.
